Tests used:
[1] = tested on: large intestine cancer patients; test: Treatment of large intestine cancer patients (Example 2); format: in vivo, human; settings: Table 2
Source text: Next, treatment of 11 large intestine cancer patients is described.
In principle, the same as Example 1.
The following is course of treatment of the large intestine cancer patients.

[2] = cited from earlier work

O=C1O[C@H]([C@@H](O)CO)C(O)=C1O [vitamin C, ascorbic acid]
Alive or dead [1]: Alive | stability to heat ([2]; heat): weak to heat | oxidation reduction potential ([2]; pH 7.0): +0.058 V
